According to patent KR20110060529A, “시클로헥산 디카르복실산 유도체를 함유하는 피부 외용제 조성물” ((주)아모레퍼시픽, priority 2009, dated 2011):

Tests used:
Type in all cases: in vitro ADME, guinea pig
[1] = Test Example 4: skin absorption of vitamin A (retinoic acid) (Franz permeation cell, HPLC)
[2] = Test Example 3: skin absorption of arbutin (Franz permeation cell, HPLC)
[3] = Test Example 2: skin absorption of ascorbyl glucoside (Franz permeation cell, HPLC)

- increase in skin absorption of retinoic acid [1]: 2~3 fold
- increase in skin absorption of arbutin [2]: 5~6 fold
- increase in skin absorption of ascorbyl glucoside [3]: 5~6 fold
SMILES: CCOCCOCCOC(=O)C1CCC(C(=O)OCCOCCOCC)CC1 (stereo not drawn) [시클로헥산 디카르복실산 유도체, Bis-Ethoxydiglycol Cyclohexane 1,4-Dicarboxylate]
